ChEMBL document CHEMBL1141768, “Constituents of Vittaria anguste-elongata and their biological activities” (J Nat Prod, 2005)

What was measured:
Assay type in all cases: functional
[1] = tested on: Radical scavenging activity; assay: Antioxidant activity assessed as DPPH free radical scavenging activity after 30 mins
NCI-H460 = assay: Cytotoxicity against human NCI-H460 cells at 58 uM
SF-268 = assay: Cytotoxicity against human SF268 cells at 58 uM

Compound	IC50 [1] [µM]	inhibition at 58 µM (NCI-H460) [%]	inhibition at 58 µM (SF-268) [%]
COc1cc(-c2cc(=O)c3c(O)cc(O)cc3o2)cc(OC)c1OC		89	61
VITAMIN E	350		
CCOC(=O)[C@]1(O)C[C@@H](O)[C@H](OC(=O)/C=C/c2ccc(O)c(O)c2)[C@H](O)C1	234		

The next lines start with results.

IC50 [1] [µM]	Compound	inhibition at 58 µM (NCI-H460) [%]	inhibition at 58 µM (SF-268) [%]
290	C[C@H]1OC(=O)[C@@H](O)[C@@H]1OC(=O)/C=C/c1ccc(O)c(O)c1		
91	O=C(/C=C/c1ccc(O)c(O)c1)OC[C@H](O)[C@H]1OC(=O)[C@H](O)[C@H]1O		
